Measured values: US9650379B2 (CHONG KUN DANG PHARMACEUTICAL CORP., priority 2013, dated 2017)
pIC50: −log10 of the molar value.

Columns and labels:
HDAC1 = target: T1, HDAC1 (Homo sapiens, UniProt Q13547); test: Inhibition of HDAC1 activity (HDAC1 fluorimetric drug discovery assay kit); format: biochemical; conditions: test concentrations 100, 1000 and 10000 nM; 37° C., 60 minutes
T1 construct: purchased Enzolifesciences BML-AK511
Procedure: (§1) Assays were performed using a HDAC1 fluorimetric drug discovery assay kit (Enzolifesciences: BML-AK511) and a HDAC6 human recombinant (Calbiochem: 382180). The assay mixture of the kit was treated with a test compound at concentrations of 100, 1000 and 10000 nM for HDAC1 assay and concentrations of 0.1, 1, 10, 100 and 1000 nM for HDAC6 assay. The treated assay mixture was allowed to react at 37° C. for 60 minutes, and then was treated with a developer and allowed to stand at 37° C. for 30 minutes, followed by quantification of the fluorescence.

HDAC6 human recombinant = target: T2, HDAC6 human recombinant (Homo sapiens, UniProt Q9UBN7); test: Inhibition of HDAC6 activity (fluorimetric assay); format: biochemical; conditions: test concentrations 0.1, 1, 10, 100 and 1000 nM; 37° C., 60 minutes
T2 construct: purchased Calbiochem 382180
T2 sequence (Q9UBN7 1-1215): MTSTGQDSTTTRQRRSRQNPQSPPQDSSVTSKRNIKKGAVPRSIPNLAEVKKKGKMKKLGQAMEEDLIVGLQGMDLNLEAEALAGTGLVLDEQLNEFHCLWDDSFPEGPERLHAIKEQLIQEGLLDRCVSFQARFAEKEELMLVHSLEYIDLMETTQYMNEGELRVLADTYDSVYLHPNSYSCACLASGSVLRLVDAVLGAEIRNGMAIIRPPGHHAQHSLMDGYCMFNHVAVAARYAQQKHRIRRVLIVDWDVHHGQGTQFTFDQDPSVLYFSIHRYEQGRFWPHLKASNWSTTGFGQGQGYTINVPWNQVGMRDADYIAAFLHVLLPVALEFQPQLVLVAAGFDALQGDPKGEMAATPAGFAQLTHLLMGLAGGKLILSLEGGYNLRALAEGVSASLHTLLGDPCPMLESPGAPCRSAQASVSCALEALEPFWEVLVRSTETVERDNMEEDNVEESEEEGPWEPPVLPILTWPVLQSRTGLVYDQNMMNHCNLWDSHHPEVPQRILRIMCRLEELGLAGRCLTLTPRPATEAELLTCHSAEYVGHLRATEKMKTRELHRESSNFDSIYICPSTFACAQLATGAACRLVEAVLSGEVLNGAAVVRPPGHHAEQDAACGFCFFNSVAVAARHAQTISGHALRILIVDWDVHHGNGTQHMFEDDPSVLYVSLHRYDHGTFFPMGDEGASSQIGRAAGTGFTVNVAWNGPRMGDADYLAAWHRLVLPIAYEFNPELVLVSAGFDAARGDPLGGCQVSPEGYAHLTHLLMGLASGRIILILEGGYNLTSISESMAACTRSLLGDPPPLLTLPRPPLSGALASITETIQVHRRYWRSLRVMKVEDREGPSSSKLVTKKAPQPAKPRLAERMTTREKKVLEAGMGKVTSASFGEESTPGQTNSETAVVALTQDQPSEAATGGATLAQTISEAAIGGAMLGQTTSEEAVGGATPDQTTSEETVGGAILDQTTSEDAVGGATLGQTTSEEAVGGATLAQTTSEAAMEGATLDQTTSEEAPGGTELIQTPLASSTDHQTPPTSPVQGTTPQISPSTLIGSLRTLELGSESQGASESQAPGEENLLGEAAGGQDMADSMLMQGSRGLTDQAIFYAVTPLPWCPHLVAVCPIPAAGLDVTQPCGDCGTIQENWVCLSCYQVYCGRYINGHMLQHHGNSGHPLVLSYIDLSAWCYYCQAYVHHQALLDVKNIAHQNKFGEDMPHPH
Procedure: as §1

T1 sequence (Q13547 whole entry): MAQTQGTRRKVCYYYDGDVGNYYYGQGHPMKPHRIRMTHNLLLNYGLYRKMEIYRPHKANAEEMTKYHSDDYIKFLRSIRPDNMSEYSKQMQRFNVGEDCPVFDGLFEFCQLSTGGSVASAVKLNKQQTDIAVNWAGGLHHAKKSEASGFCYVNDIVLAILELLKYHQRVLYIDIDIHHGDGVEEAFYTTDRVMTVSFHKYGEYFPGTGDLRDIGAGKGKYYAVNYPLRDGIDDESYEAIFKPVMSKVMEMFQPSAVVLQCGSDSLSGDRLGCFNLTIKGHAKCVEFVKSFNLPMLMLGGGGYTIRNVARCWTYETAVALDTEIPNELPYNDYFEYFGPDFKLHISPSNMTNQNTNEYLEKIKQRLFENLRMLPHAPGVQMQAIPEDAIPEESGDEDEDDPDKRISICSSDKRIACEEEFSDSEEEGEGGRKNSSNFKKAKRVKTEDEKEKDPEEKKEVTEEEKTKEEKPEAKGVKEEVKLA

SMILES	pIC50 (HDAC1)	pIC50 (HDAC6 human recombinant)
O=C(NO)c1ccc(Cn2ccc3cc(-c4ccc5cccnc5c4)cnc32)cc1 [Compound 688, N-hydroxy-4-((5-(quinolin-7-yl)-1H-pyrrolo[2,3-b]pyridin-1-yl)methyl)benzamide]	5.34	7.66
COc1ccc(-c2cnc3c(ccn3Cc3ccc(C(=O)NO)cc3)c2)cc1 [Compound 689, N-hydroxy-4-((5-(4-methoxyphenyl)-1H-pyrrolo[2,3-b]pyridin-1-yl)methyl)benzamide]	5.50	7.08
Nc1cccc(-c2cnc3c(ccn3Cc3ccc(C(=O)NO)cc3)c2)c1 [Compound 690, 4-((5-(3-aminophenyl)-1H-pyrrolo[2,3-b]pyridin-1-yl)methyl)-N-hydroxybenzamide]	5.64	7.92
O=C(NO)c1ccc(Cn2ccc3cc(-c4ccc(O)cc4)cnc32)cc1 [Compound 691, N-hydroxy-4-((5-(4-hydroxyphenyl)-1H-pyrrolo[2,3-b]pyridin-1-yl)methyl)benzamide]	5.64	8.30
CC(C)(C)OC(=O)N1CC=C(c2cnc3c(ccn3Cc3ccc(C(=O)NO)cc3)c2)CC1 [Compound 692, tert-butyl 4-(1-(4-(hydroxycarbamoyl)benzyl)-1H-pyrrolo[2,3-b]pyridin-5-yl)-5,6-dihydropyridine-1(2H)-carboxylate]	5.46	8.10
O=C(NO)c1ccc(Cn2ccc3cc(C4=CCNCC4)cnc32)cc1 [Compound 693, N-hydroxy-4-((5-(1,2,3,6-tetrahydropyridin-4-yl)-1H-pyrrolo[2,3-b]pyridin-1-yl)methyl)benzamide]	6.28	8.52
CC(C)(C)OC(=O)N1CCC(c2cnc3c(ccn3Cc3ccc(C(=O)NO)cc3)c2)CC1 [Compound 694, tert-butyl 4-(1-(4-(hydroxycarbamoyl)benzyl)-1H-pyrrolo[2,3-b]pyridin-5-yl)piperidine-1-carboxylate]	5.29	7.55
O=C(NO)c1ccc(Cn2ccc3c(N4CCN(c5ccc(C(F)(F)F)cn5)CC4)ccnc32)cc1 [Compound 700, N-hydroxy-4-((4-(4-(5-(trifluoromethyl)pyridin-2-yl)piperazin-1-yl)-1H-pyrrolo[2,3-b]pyridin-1-yl)methyl)benzamide]	5.37	7.39
O=C(NO)c1ccc(Cn2ccc3c(N4CCN(c5cnc(C(F)(F)F)cn5)CC4)ccnc32)cc1 [Compound 701, N-hydroxy-4-((4-(4-(5-(trifluoromethyl)pyrazin-2-yl)piperazin-1-yl)-1H-pyrrolo[2,3-b]pyridin-1-yl)methyl)benzamide]	5.82	7.64
CCc1cnc(N2CCN(c3ccnc4c3ccn4Cc3ccc(C(=O)NO)cc3)CC2)nc1 [Compound 702, 4-((4-(4-(5-ethylpyrimidin-2-yl)piperazin-1-yl)-1H-pyrrolo[2,3-b]pyridin-1-yl)methyl)-N-hydroxybenzamide]	5.98	7.80
O=C(NO)c1ccc(Cn2ccc3c(N4CCN(C(=O)C5(C(F)(F)F)CCC5)CC4)ccnc32)cc1 [Compound 703, N-hydroxy-4-((4-(4-(1-(trifluoromethyl)cyclobutanecarbonyl)piperazin-1-yl)-1H-pyrrolo[2,3-b]pyridin-1-yl)methyl)benzamide]	6.14	8.22
O=C(NO)c1ccc(Cn2ccc3c(N4CCN(Cc5ccccc5)CC4)ccnc32)cc1 [Compound 704, 4-((4-(4-benzylpiperazin-1-yl)-1H-pyrrolo[2,3-b]pyridin-1-yl)methyl)-N-hydroxybenzamide]	6.21	8.05
COc1ccc(CN2CCN(c3ccnc4c3ccn4Cc3ccc(C(=O)NO)cc3)CC2)cc1 [Compound 705, N-hydroxy-4-((4-(4-(4-methoxybenzyl)piperazin-1-yl)-1H-pyrrolo[2,3-b]pyridin-1-yl)methyl)-benzamide]	5.95	7.96
O=C(NO)c1ccc(Cn2ccc3c(N4CCN(Cc5ccc(C(F)(F)F)cc5)CC4)ccnc32)cc1 [Compound 706, N-hydroxy-4-((4-(4-(4-(trifluoromethyl)benzyl)piperazin-1-yl)-1H-pyrrolo[2,3-b]pyridin-1-yl)methyl)benzamide]	5.63	7.52
CC(C)(O)CN1CCC(c2cnc3c(ccn3Cc3ccc(C(=O)NO)cc3)c2)CC1 [Compound 714, N-hydroxy-4-((5-(1-(2-hydroxy-2-methylpropyl)piperidin-4-yl)-1H-pyrrolo[2,3-b]pyridin-1-yl)methyl)benzamide]	5.92	7.92
O=C(NO)c1ccc(Cn2ccc3cc(C4CCNCC4)cnc32)cc1 [Compound 715, N-hydroxy-4-((5-(piperidin-4-yl)-1H-pyrrolo[2,3-b]pyridin-1-yl)methyl)benzamide]	6.27	8.10
O=C(NO)c1ccc(Cn2ccc3cc(C4=CCN(CC5CCCCC5)CC4)cnc32)cc1 [Compound 721, 4-((5-(1-(cyclohexylmethyl)-1,2,3,6-tetrahydropyridin-4-yl)-1H-pyrrolo[2,3-b]pyridin-1-yl)methyl)-N-hydroxybenzamide]	5.88	7.72
Nc1cccc(-c2ccnc3c2ccn3Cc2ccc(C(=O)NO)cc2)c1 [Compound 722, 4-((4-(3-aminophenyl)-1H-pyrrolo[2,3-b]pyridin-1-yl)methyl)-N-hydroxybenzamide]	6.57	8.52
CN1CC=C(c2ccnc3c2ccn3Cc2ccc(C(=O)NO)cc2)CC1 [Compound 723, N-hydroxy-4-((4-(1-methyl-1,2,3,6-tetrahydropyridin-4-yl)-1H-pyrrolo[2,3-b]pyridin-1-yl)methyl)benzamide]	6.51	8.30
O=C(NO)c1ccc(Cn2ccc3cc(C4CCN(CC5(C(F)(F)F)CCC5)CC4)cnc32)cc1 [Compound 724, N-hydroxy-4-((5-(1-((1-(trifluoromethyl)cyclobutyl)methyl)piperidin-4-yl)-1H-pyrrolo[2,3-b]pyridin-1-yl)methyl)benzamide]	5.01	6.83
O=C(NO)c1ccc(Cn2ccc3ccc(C4=CCOCC4)nc32)cc1 [Compound 743, 4-((6-(3,6-dihydro-2H-pyran-4-yl)-1H-pyrrolo[2,3-b]pyridin-1-yl)methyl)-N-hydroxybenzamide]	6.72	7.60
CC(C)(C)OC(=O)N1CC=C(c2ccc3ccn(Cc4ccc(C(=O)NO)cc4)c3n2)CC1 [Compound 744, tert-butyl 4-(1-(4-(hydroxycarbamoyl)benzyl)-1H-pyrrolo[2,3-b]pyridin-6-yl)-5,6-dihydropyridine-1(2H)-carboxylate]	5.72	7.21
CC(C)(C)OC(=O)N1CCN(c2cnc3c(ccn3Cc3ccc(C(=O)NO)cc3)c2)CC1 [Compound 746, tert-butyl 4-(1-(4-(hydroxycarbamoyl)benzyl)-1H-pyrrolo[2,3-b]pyridine-5-yl)piperazine-1-carboxylate]	5.71	7.66
CC(C)(C)OC(=O)N1CC=C(c2nccc3c2ccn3Cc2ccc(C(=O)NO)cc2)CC1 [Compound 757, tert-butyl 4-(1-(4-(hydroxycarbamoyl)benzyl)-1H-pyrrolo[3,2-c]pyridin-4-yl)-5,6-dihydropyridine-1(2H)-carboxylate]	5.95	7.77
CC(C)(C)OC(=O)N1CC=C(c2ccc3c(ccn3Cc3ccc(C(=O)NO)cc3)n2)CC1 [Compound 758, tert-butyl 4-(1-(4-(hydroxycarbamoyl)benzyl)-1H-pyrrolo[3,2-b]pyridin-5-yl)-5,6-dihydropyridine-1(2H)-carboxylate]	5.79	8.10
